Data published in PMC6273229, “Imidazopyranotacrines as Non-Hepatotoxic, Selective Acetylcholinesterase Inhibitors, and Antioxidant Agents for Alzheimer′s Disease Therapy” (Molecules, 2016).
Like-named read-outs stand apart in the source and are kept apart here.

Experiments:
[1] = target: AChE from Electrophorus electricus (EeAChE) (Electrophorus electricus, UniProt O42275); assay: biochemical
Procedure: The inhibitory activity on AChE from Electrophorus electricus (type VI-S, Sigma, Milan, Italy), was evaluated spectrophotometrically by the method of Ellman et al.. AChE stock solution was prepared by dissolving EeAChE lyophilized powder (Sigma) in 0.1 M phosphate buffer (pH = 8.0) containing 0.1% Triton X-100. Stock solutions of the tested compounds (1 mM) were prepared in MeOH/H2O 50/50 (v/v) and diluted in MeOH/H2O 50/50 (v/v). […] Assay solutions with and without inhibitor were preincubated at 37 °C for 20 min followed by the addition of substrate. Blank solutions containing all components except EeAChE were prepared in parallel to account for the non-enzymatic hydrolysis of the substrate. Initial rate assays were performed at 37 °C with a Jasco V-530 double beam spectrophotometer. […] The velocity in the presence and absence of inhibitor were compared and % inhibition was calculated. The results were plotted by placing the percentage of inhibition in function of the decimal log of the final inhibitor concentration. Linear regression and IC50 values were calculated using Microcal Origin 3.5 software (Microcal Software, […]).

[2] = target: T1, BuChE from horse serum (eqBuChE) (Equus caballus, UniProt P81908); assay: biochemical; settings: mean ± SEM
T1 construct: BuChE from horse serum (lyophilized powder, Sigma-Aldrich); purchased Sigma-Aldrich; host or cells: horse serum
Procedure: The % inhibitory activity on BuChE from horse serum (lyophilized powder, Sigma-Aldrich), was evaluated spectrophotometrically by the method of Ellman et al.. BuChE stock solutions were first dissolved in 0.1 M phosphate buffer (pH 8.0) and then aliquoted in small vials. Compounds were dissolved in DMSO at 10 mM. The reaction was carried out in a final volume of 3 mL of a 0.1 M phosphate-buffered solution at pH 8.0, containing 5,5′-dithiobis-2-nitrobenzoic acid (DTNB, 2625 µL, 0.35 mM, final concentration), eqBuChE (60 µL, 0.05 U/mL final concentration), tested compound (3 µL, 10 µM, final concentration) and 1% w/v Bovine Serum Albumin phosphate-buffered (pH 8.0) solution (BSA, 40 µL). The inhibition with respect to control without compound was determined by pre-incubating this mixture at rt with each compound for 10 min. After this period, butyrylthiocholine iodide (150 µL, 0.5 mM final concentration) was added and incubated for 15 min at rt.

[3] = target: T2, EeAChE (Electrophorus electricus, UniProt O42275); assay: Kinetic analysis of the inhibition of EeAChE (Lineweaver-Burk, Dixon, Cornish-Bowden plots); type: biochemical
T2 construct: purchased Sigma type VI-S
Procedure: . […] The non-competitive mechanism of action was confirmed by building the Cornish-Bowden plot (Figure 3B). Replots of the substrate/velocity versus the concentration of compound 8 provided an estimate of the non-competitive inhibition constant, which resulted equal to 4.10 μM. The non-competitive mechanism of action was confirmed by computational chemistry by performing the docking analysis of both enantiomers of compound 8 on AChE (see Supplementary Materials).
[…]. Four concentrations of inhibitor were selected for this study: 0.850, 2.124, 3.399, 6.798 μM. The plots were assessed by a weighted least-squares analysis that assumed the variance of the velocity (v) to be a constant percentage of v for the entire data set. Data analysis was performed with GraphPad Prism 4.03 software (GraphPad Software Inc., San Diego, CA, USA). The determination of the non-competitive inhibition constant Ki value was carried out using Dixon plot, i.e., plotting the apparent 1/v vs. inhibitor concentration [I] [34] and confirmed by Cornish-Bowden plot ([substrate]/v vs. [I]).

[4] = Oxygen radical absorbance capacity by fluorescence (ORAC-FL); settings: Trolox equivalents, mean ± SD
Procedure: The antioxidant power of the imidazopyranotacrines 1–13 was determined by the oxygen radical absorbance capacity by fluorescence (ORAC-FL) method using fluorescein as fluorescent probe and Trolox (6-hydroxy-2,5,7,8-tetramethylchroman-2-carboxylic acid) as a reference compound. Results are expressed as Trolox equivalents (μmol Trolox per μmol test compound).
The radical scavenging activity of imidazopyranotacrines 1–13 was determined by the ORAC-FL method using a Varioskan Flash plate reader with built-in injectors (Thermo Scientific). Trolox, 2,2′-azobis(amidinopropane) dihydrochloride (AAPH) and fluorescein (FL) were purchased from Sigma-Aldrich. The reaction was performed at 37 °C in 75 mM phosphate buffer (pH = 7.4), and the final volume reaction mixture was 200 µL. The final concentrations were 1–8 µM for Trolox and 0.1–1 µM for the tested compounds. Briefly, in a black 96-well microplate (Nunc), antioxidant (20 µL) and fluorescein (120 µL) were incubated for 15 min at 37 °C. Then, 2,2′-azobis(amidinopropane) dihydrochloride (60 µL) was added using the built-in injector. […] All assays were made in triplicate and at least three different assays were performed for each sample.
The net AUC corresponding to a sample was calculated as follows: Net AUC = AUCantioxidant − AUCblank(2)
Regression equations were calculated by plotting the net AUC against the antioxidant concentration. The ORAC value was obtained by dividing the slope of the latter curve by the slope of the Trolox curve obtained in the same assay. ORAC values was expressed as µmol of Trolox equivalent/µmol of imidazopyranotacrines. Data are expressed as mean ± SD.

[5] = system: HepG2 cells; type: cell-based; settings: for Cell viability (MTT reduction, % control): 24 h, mean ± S.E.M.; for hepatotoxicity on HepG2 cells (in words): cell viability assay, 1–1000 µM
Procedure: The human hepatoma HepG2 line cells were purchased from American Type Culture Collection. The cells were cultured in Eagle’s Minimum Essential Medium (Ozyme, Montigny-le-Bretonneux, France) supplemented with 10% fetal bovine serum, 1X non-essential amino acids, 100 units/mL penicillin and […] streptomycin (Dutscher, Brumath, France). […] Prior to the experiment, cells were seeded in 96-well culture plates at a density of 0.1 × 10^6 cells per well. After 24 h of incubation, the culture medium was refreshed and 100 µL of the test compounds or DMSO (0.1%) were added. Compounds were tested at 7 concentrations (1–1000 µM) in triplicate.
Cell viability, measured as the mitochondrial activity of living cells, was determined by quantitative colorimetric assay with 3-[4,5 dimethylthiazol-2-yl]-2,5-diphenyl-tetrazolium bromide (MTT). Briefly, after 24 h of treatment, cells were incubated with 50 µL MTT (0.5 mg/mL, Sigma Aldrich) at 37 °C for 2 h. Plates were centrifuged, MTT was removed and 100 µL DMSO was distributed per well. The absorbance was read at 570 nm by microplate spectrophotometry. Cell viability was expressed as percentage over controls (DMSO, 0.1%).

[6] = ORAC-FL, Trolox equivalents, cited from earlier work

T2 sequence (O42275 24-633): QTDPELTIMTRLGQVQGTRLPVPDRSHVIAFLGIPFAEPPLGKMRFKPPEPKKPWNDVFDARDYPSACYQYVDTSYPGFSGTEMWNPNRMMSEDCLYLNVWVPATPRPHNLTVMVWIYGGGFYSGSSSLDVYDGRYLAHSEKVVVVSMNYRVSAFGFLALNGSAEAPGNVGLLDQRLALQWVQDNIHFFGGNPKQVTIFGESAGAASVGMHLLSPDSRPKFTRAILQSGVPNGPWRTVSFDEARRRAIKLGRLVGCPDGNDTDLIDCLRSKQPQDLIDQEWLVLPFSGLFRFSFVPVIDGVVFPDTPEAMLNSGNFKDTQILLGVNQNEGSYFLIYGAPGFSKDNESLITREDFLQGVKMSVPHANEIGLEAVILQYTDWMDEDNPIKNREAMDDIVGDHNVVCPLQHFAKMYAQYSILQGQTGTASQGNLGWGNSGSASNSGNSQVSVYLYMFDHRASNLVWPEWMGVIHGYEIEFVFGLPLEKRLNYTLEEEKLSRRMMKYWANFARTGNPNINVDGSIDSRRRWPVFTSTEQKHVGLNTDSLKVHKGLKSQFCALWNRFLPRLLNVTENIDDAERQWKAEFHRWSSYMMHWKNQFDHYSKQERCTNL
T1 sequence (P81908 whole entry): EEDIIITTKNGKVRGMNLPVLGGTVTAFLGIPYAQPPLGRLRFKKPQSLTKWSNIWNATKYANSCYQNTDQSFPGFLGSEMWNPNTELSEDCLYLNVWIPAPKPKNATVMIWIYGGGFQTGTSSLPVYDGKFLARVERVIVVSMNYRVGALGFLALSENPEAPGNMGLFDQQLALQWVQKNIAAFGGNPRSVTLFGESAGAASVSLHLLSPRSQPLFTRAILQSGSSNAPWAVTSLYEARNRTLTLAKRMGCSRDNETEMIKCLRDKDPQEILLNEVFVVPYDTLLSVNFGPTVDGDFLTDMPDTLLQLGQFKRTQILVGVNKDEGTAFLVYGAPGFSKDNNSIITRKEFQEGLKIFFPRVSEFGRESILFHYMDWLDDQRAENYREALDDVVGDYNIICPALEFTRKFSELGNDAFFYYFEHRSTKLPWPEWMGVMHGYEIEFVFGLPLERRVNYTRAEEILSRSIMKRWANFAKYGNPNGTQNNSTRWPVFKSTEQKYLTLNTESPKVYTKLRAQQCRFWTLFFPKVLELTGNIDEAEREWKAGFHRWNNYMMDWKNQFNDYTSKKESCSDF
Chain of AChE from Electrophorus electricus (EeAChE) (O42275 24-633): as the sequence (O42275 24-633) above

Row | Compound | IC50 [1] | inhibition at 10 µM [2] | mechanism of inhibition of EeAChE ([3]; Km unaltered, Vmax decreased) | Ki ([3]; substrate acetylthiocholine, estimate from Cornish-Bowden plot, read-out: non-competitive inhibition constant (Ki)) | ORAC [4] | Cell viability (MTT reduction, % control) ([5]; HepG2, 1 µM) | Cell viability (MTT reduction, % control) ([5]; HepG2, 3 µM) | Cell viability (MTT reduction, % control) ([5]; HepG2, 10 µM) | Cell viability (MTT reduction, % control) ([5]; HepG2, 30 µM) | Cell viability (MTT reduction, % control) ([5]; HepG2, 100 µM) | Cell viability (MTT reduction, % control) ([5]; HepG2, 300 µM) | Cell viability (MTT reduction, % control) ([5]; HepG2, 1000 µM) | hepatotoxicity on HepG2 cells (in words) [5] | ORAC [6] | ORAC ([6]; listed as tacrine)
1 | Cn1ccnc1C1c2c(nc3c(c2N)CCCC3)Oc2ccc3ccccc3c21 (centres unmarked) [Compound 8, 14-(1-Methyl-1H-imidazol-2-yl)-9,11,12,14-tetrahydro-10H-benzo[5,6]chromeno[2,3-b]quinolin-13-amine] | 6.73 ± 0.52 µM | 51.6 ± 0.6% | non-competitive | 4.1 µM | 1.88 ± 0.01 µmol Trolox/µmol compound | 108.1 ± 5.4 % control | 101.3 ± 10.8 % control | 79.0 ± 9.1 % control | 57.6 ± 4.2 % control | 52.7 ± 3.3 % control | 51.2 ± 2.8 % control | 66.2 ± 6.8 % control | more toxic than tacrine | – | –
2 | Nc1c2c(nc3ccccc13)CCCC2 [Tacrine] | – | – | – | – | – | 95.8 ± 2.2 % control | 100.4 ± 2.2 % control | 96.9 ± 3.9 % control | 97.7 ± 3.9 % control | 98.6 ± 3.8 % control | 39.2 ± 4.7 % control | 20.0 ± 2.1 % control | safe up to 100 µM | 0.20 ± 0.04 [28] µmol Trolox/µmol compound | 0.20 ± 0.04 µmol Trolox/µmol compound
